The source of these data is patent US20140047572A1, “THROMBOPOIETIN MIMETICS FOR THE TREATMENT OF RADIATION OR CHEMICAL INDUCED BONE MARROW INJURY” (priority 2012, published 2014).

One assay has as its system Mpl^hmMPL knock-in mice. In words: Survival of Mpl^hmMPL knock-in mice after lethal total body irradiation. It is filed as in vivo, mouse. The conditions noted are these: 8 Gy TBI, eltrombopag 50 mg/kg gavage daily for 15 days from 24 h after TBI, monitored 30 days. On the procedure:
FIG. 3 is a Kaplan-Meier survival curve showing survival of wildtype and Mpl^hmMPL knock-in mice after exposure to a non-therapeutic dose of radiation. Male Mpl^hmMPL knock-in mice received total body irradiation (TBI) of 8 Gy. Twenty-four hours after TBI, mice were gavaged daily with eltrombopag (50 mg/kg) for 15 days. Survival of mice was monitored twice daily for 30 days. Experiments were carried out with 8 homozygous Mpl^hmMPL knock-in mice, 10 heterozygous Mpl^hmMPL knock-in mice, and 10 wild type mice.
All mice received 8 Gy total body irradiation and were treated with eltrombopag 24 hours after irradiation. […] It is believed that eltrombopag facilitates bone marrow recovery after radiation injury to the hematopoietic system.

The subject of a further assay is Mpl^hExon10 KI mice. In words: Eltrombopag treatment of non-irradiated Mpl^hExon10 KI mice: platelet and bone marrow cell populations. In kind it is in vivo, mouse. The following applies: 25 mg/kg/day gavage 15 days, vs vehicle. On the procedure:
Mpl^hExon10 KI mice (9 to 13 weeks old, male and female) were fed with 25 mg eltrombopag (ePag)/kg/day or vehicle by gavage for 15 days. Eltrombopag is a non-peptide mimetic of the TPO receptor. Mice were sacrificed on the 16th day for cell analysis.
To examine platelet levels, whole blood was obtained by heart puncture and CBC was done by Heska HemaTrue Hematology analyzer. Whole blood was also stained by anti CD41 and anti CD61 antibodies. The ratio of platelets to RBCs was measured by flow cytometry after whole blood was stained with anti-CD41 and anti-CD61 antibodies. The count of platelets was calculated by multiplying the ratio with the count of RBCs obtained by Heska HemaTrue Hematology Analyzer. The data is presented as mean±standard error of the mean.
To examine bone marrow cell populations, mice were sacrificed on day 16 and bone marrow cells were flushed out of the femur and tibia. RBCs were lysed by ACK buffer. The bone marrow mononuclear cells were stained with anti-CD41-PE and anti-CD42-APC. DAPI was added before flow cytometric analysis to gate away dead cells. The number of mice in each genotype is 5-7. All results are shown as the mean±standard error of the mean.
In a separate experiment, bone marrow mononuclear cells were stained with anti-lineages-PE (Gr-1, Mac-1, B220, Ter119, CD4 and CD8), anti-Sca-1 FITC, and anti-c-kit-APC. DAPI-pacific blue was added before flow cytometric analysis to eliminate dead cells. To analyze KSL (linage^−, c-kit^+, sca^+) population, live cells (DAPI-) are first gated, followed by gating the linage^− population and selecting c-kit^+/sca-1^+ population within the linage^− population.

Assay [1] relates to human c-mpl TM (exon 10) KI mice. Description: Survival of irradiated human c-mpl TM (exon 10) KI mice. In kind it is in vivo, mouse. The following applies: 7.75 Gy TBI; for survival after TBI: male mice, 12.5, 25 or 50 mg/kg daily gavage 15 days from 24 h after irradiation, vs vehicle. On the procedure: Male Mpl^hExon10KI (human c-mpl TM knock-in mice) received 7.75 Gy TBI. Twenty-four hours after irradiation, mice were gavaged with either vehicle (0 mg/kg of eltrombopag) or one of the three doses of eltrombopag (12.5 mg/kg, 25 m g/kg, vs. 50 mg/kg daily for 15 days (n=8-10) for each experimental group.
A pilot radiation study of was performed using human c-mpl TM KI mice before completion of backcrossing to >95% C57B1. Male human c-mpl TM (exon 10) KI mice received 7.75 Gy TBI. Twenty-four hours after irradiation, mice were gavaged with either vehicle (0 mg/kg of eltrombopag) or one of the three doses of eltrombopag (12.5 mg/kg, 25 m g/kg, vs. 50 mg/kg daily for 15 days (n=8-10) for each experimental group.

Assay [2] deals with Human bone marrow mononuclear cells. In words: Megakaryocyte and CD41+CD34- cell differentiation in ex vivo human bone marrow culture in 3D bioreactor. In kind it is cell-based. The following applies: eltrombopag 8 μg/mL + IL11 vs TPO + IL11; non-irradiated control and irradiated cultures; 14 days. The method, then: FIGS. 12A-D illustrate the effects of IL-11 only (middle/red bars) versus TPO+IL11 (left/blue bars) versus eltrombopag (8 μg/mL)+IL11 (right/green bars) on promoting megakaryocyte or CD41+CD34− cell differentiation in control and irradiated ex vivo human 3D bone marrow mononuclear cells. Cells were treated with TPO and IL11 (5 ng/mL each) for 6-7 days to induce megakaryocyte differentiation. Culture media was replaced with cultures containing IL-11 only, TPO+IL11, or eltrombopag+IL11 for the groups of control cultures (FIGS. 12A, 12C) and the group of irradiated cultures (FIGS. 12B, 12D). […]
Human bone marrow mononuclear cells were inoculated into the 6-well bioreactor as described above (3.5×10^6 cells in 0.6 mL). […] Cultures were screened weekly for cell viability (Trypan blue exclusion test) and for megakaryocytes production expressed as number of megakaryocytes per 1000 bone marrow cells on Wright stained cytospin slides.
Flow cytometry analysis of CD41+CD34− cells (marker for precursor/progenitor of thrombopoiesis) was also performed for megakaryocytes and progenitors as an additional experimental end-point. […] Cells were analyzed on FACS—Calibur Flow Cytometer (Becton-Dickinson, Rockville, Md.). CD41+CD34− cell population was gated as a subpopulation of all living cells analyzed. […]

In assay [3] the test system is TM KI homozygote mutant mice. In words: Blood cell recovery in irradiated human c-Mpl TM (exon 10) KI mice. The following applies: 6.5 Gy TBI, 25 mg/kg/day oral gavage from 24 h post IR, vs vehicle. It is filed as in vivo, mouse. The method, then: TM KI homozygote mutant mice (11 weeks old, male and female) were treated with 6.5 Gy TBI and at 24 hr post IR fed with 25 mg ePag/kg/day or vehicle by oral gavage daily for 28 days or till sacrificed. Mice were sacrificed on the day specified. Whole blood was obtained by heart puncture and CBC was done by Heska HemaTrue Hematology analyzer. Whole blood was also stained by anti CD41 and anti CD61 antibodies. BM was extracted and stained with mCD41 and mCD42d for flow cytometry analysis of […] cells (markers for precursor and progenitors for thrombopoiesis).
The ratio of platelets to RBCs was measured by flow cytometry after whole blood was stained with anti-CD41 and anti-CD61 antibodies. The count of platelets was calculated by multiplying the ratio with the count of RBCs obtained by Heska HemaTrue Hematology Analyzer. Week 0 is normal mice without IR and gavage.

The subject of another assay is TPO receptors. The following applies: depends on His 499 in the transmembrane portion; cited from earlier work.

In the case of `CC1=NN(c2ccc(C)c(C)c2)C(=O)/C1=N\Nc1cccc(-c2cccc(C(=O)O)c2)c1O` [eltrombopag, (Z)-3′-(2-(1-(3,4-dimethylphenyl)-3-methyl-5-oxo-1H-pyrazol-4(5H)-ylidene)hydrazinyl)-2′-hydroxybiphenyl-3-carboxylic acid], the “survival after lethal total body irradiation, heterozygous Mpl^hmMPL knock-in mice” value in the assay on Mpl^hmMPL knock-in mice (heterozygous vs wild type) was “survived longer than the wild type”. The “survival after lethal total body irradiation, homozygous Mpl^hmMPL knock-in mice” value in the assay on Mpl^hmMPL knock-in mice (homozygous vs heterozygous) was “survived longer than the heterozygous transgenic mice”. In addition, in the assay with Mpl^hExon10 KI mice (Mpl^hExon10 KI mice), the “bone marrow Lin-KSL (stem) cells” value was “significantly increased”. In addition, the “bone marrow CD41+CD42+ cells” value with Mpl^hExon10 KI mice (homozygous Mpl^hExon10 KI mice, day 16) is listed as “significantly increased”. Also, the “platelet counts in the peripheral blood” value in the assay with Mpl^hExon10 KI mice (homozygous Mpl^hExon10 KI mice, day 16, 25 mg/kg/day) is given as “significantly increased the platelet counts”. Moreover, in assay [1] (25 and 50 mg/kg vs 12.5 mg/kg daily for 15 days), the “survival after TBI, dose dependence” value is “higher doses (25 mg/kg and 50 mg/kg) yielded better survival”. Besides, the “survival after TBI” value in assay [1] was “improves survival”. The “survival after TBI” value in assay [1] (listed as Eltrombopag) is on record as “improved the survival of mice”. For the same molecule, in assay [2], the “CD41+CD34- cells (precursors/progenitors for thrombopoiesis)” value is given as “performed as well as TPO” and the “megakaryocytes (number per 1000 bone marrow cells)” value is listed as “performed as well as TPO in promoting megakaryocytes”. In addition, the “red blood cell counts” value in assay [3] (2 weeks post IR) is “an improvement”. The platelet counts entry in assay [3] (4 and 6 weeks post IR) was “significant improvement”. The “count of bone marrow precursor/progenitor cells for thrombopoiesis” value in assay [3] (4 weeks post IR) was “significant improvement”. Besides, the “white blood cell counts” value in assay [3] (6 weeks post IR) was “significant improvement”. In addition, in the assay on TPO receptors, the “species-specificity of TPO receptor binding” value is “binds to the TPO receptors of only humans and chimpanzees”.
